Reference: patent EP4745134A1 (Jiangsu Yahong Meditech Co., Ltd., priority 2023, dated 2025)

Tests used:
[1] = tested on: HCT116-WT cells; assay: Inhibitory activity against cell proliferation (CellTiter Glo, 6 days), HCT116-WT; type: cell-based; details: 144 h, HCT116-WT cells, 6 days, CellTiter Glo; read-out: HCT116-WT IC50
Method in brief: (§1)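 250 cells/well, McCoy's 5A + 10% FBS, o/n 37°C 5% CO2; cpd 8-pt 4-fold from 10000 nM, 6 d; CTG lum on day 7; IC50 vs DMSO.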

[2] = target: PRMT5-MTA (Homo sapiens, UniProt O14744); assay: Enzymatic inhibitory activity against PRMT5-MTA (AlphaScreen); type: biochemical; details: read-out: IC50
Chain of PRMT5-MTA (O14744 whole entry): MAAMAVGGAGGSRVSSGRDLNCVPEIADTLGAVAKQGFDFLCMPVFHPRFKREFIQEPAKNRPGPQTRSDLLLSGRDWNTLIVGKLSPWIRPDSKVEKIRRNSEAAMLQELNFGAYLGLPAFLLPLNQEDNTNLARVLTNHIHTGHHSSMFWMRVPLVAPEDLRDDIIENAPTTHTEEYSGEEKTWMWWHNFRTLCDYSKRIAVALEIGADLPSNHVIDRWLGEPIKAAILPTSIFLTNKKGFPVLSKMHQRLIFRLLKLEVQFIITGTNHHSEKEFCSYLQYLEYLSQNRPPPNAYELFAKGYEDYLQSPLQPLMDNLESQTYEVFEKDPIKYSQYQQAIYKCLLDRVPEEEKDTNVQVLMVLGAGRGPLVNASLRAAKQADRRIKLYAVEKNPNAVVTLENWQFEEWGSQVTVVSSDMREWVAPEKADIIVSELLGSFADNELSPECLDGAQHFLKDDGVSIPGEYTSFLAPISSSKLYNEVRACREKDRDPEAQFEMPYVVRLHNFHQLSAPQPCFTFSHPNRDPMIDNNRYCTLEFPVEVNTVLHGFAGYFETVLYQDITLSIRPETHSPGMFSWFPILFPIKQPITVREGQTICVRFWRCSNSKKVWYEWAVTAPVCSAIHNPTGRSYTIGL
Chain of PRMT5-MTA (Q9BQA1 whole entry partner): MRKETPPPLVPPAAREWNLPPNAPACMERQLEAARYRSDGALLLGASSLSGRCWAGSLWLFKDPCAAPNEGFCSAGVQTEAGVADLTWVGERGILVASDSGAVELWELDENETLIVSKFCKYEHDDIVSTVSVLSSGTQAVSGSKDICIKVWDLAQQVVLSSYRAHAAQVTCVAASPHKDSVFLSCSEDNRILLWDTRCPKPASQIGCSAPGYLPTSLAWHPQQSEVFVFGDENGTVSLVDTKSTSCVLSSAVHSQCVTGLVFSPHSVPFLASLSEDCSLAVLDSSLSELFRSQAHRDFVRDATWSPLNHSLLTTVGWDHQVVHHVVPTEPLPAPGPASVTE
Method in brief: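 PRMT5/[…] (1 nM) was preincubated for 30 min at room temperature with 1 µM […] and 2.5 µM SAM, then exposed to compound (10-point, 3-fold from 1000 nM) for 15 min at 23 °C. Histone H4 substrate (5 nM) was added and reacted for 45 min at 23 °C. Symmetric dimethyl-R3 H4 was detected by AlphaScreen and IC50 calculated.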

[3] = tested on: HCT116 MTAP KO cells; assay: Inhibitory activity against cell proliferation (CellTiter Glo, 6 days), HCT116 MTAP KO; type: cell-based; details: for IC50: Homo sapiens, HCT-116, 144 h, HCT116 MTAP KO cells, 6 days, CellTiter Glo, read-out: HCT116 MTAP KO IC50; for Selectivity HCT 116-WT/ HCT116 MTAP KO: ratio of IC50 HCT116-WT / HCT116 MTAP KO
Method in brief: as §1

| SMILES | IC50 [1] | IC50 [2] | IC50 [3] | Selectivity HCT 116-WT/ HCT116 MTAP KO [3] |
| --- | --- | --- | --- | --- |
| Cc1cc2cc(C(=O)N(Cc3ccc(C4CCOC4)cn3)N(C)c3ncccn3)ccc2nc1N (stereo not drawn) [Example 217, 2-amino-N',3-dimethyl-N'-(pyrimidin-2-yl)-N-((5-(tetrahydrofuran-3-yl)pyridin-2-yl)methyl)quinoline-6-carbohydrazide] | 2950 nM | 2.9 nM | 70 nM | 42.11 |
| Cc1cc2cc(C(=O)N(Cc3ccc(C4CCOCC4)cn3)N(C)c3ncccn3)ccc2nc1N [Example 218, 2-amino-N',3-dimethyl-N'-(pyrimidin-2-yl)-N-((5-(tetrahydro-2H-pyran-4-yl)pyridin-2-yl)methyl)quinoline-6-carbohydrazide] | 3070 nM | 7 nM | 291 nM | 10.56 |
| Cc1cc2cc(C(=O)N(Cc3ccc(-c4ccnnc4)cn3)N(C)c3ncccn3)ccc2nc1N [Example 220, 2-amino-N',3-dimethyl-N-((5-(pyridazin-4-yl)pyridin-2-yl)methyl)-N'-(pyrimidin-2-yl) quinoline-6-carbohydrazide] | 405 nM | 1.2 nM | 23 nM | 17.61 |
| Cc1cc2cc(C(=O)N(Cc3ccc(-c4cscn4)cn3)N(C)c3ncccn3)ccc2nc1N [Example 221, 2-amino-N',3-dimethyl-N'-(pyrimidin-2-yl)-N-((5-(thiazol-4-yl)pyridin-2-yl)methyl)quinoline-6-carbohydrazide] | 1870 nM | 2.3 nM | 69 nM | 27.16 |
| Cc1cc2cc(C(=O)N(Cc3ncc(-c4cccnc4)cc3F)N(C)c3ncccn3)ccc2nc1N [Example 222, 2-amino-N-((5-fluoro-[3,3'-bipyridine]-6-yl)methyl)-N',3-dimethyl-N'-(pyrimidin-2-yl)quinoline-6-carbohydrazide] | 328 nM | 1.4 nM | 20 nM | 16.40 |
| Cc1cc2cc(C(=O)N(Cc3ccc(N4CCC(F)(F)C4)cn3)N(C)c3ncccn3)ccc2nc1N [Example 224, 2-amino-N-((5-(3,3-difluoropyrrolidin-1-yl)pyridin-2-yl)methyl)-N',3-dimethyl-N'-(pyrimidin-2-yl)quinoline-6-carbohydrazide] | > 10000 nM | 16 nM | 470 nM |  |
| COCc1ncsc1-c1ccc(CN(C(=O)c2ccc3nc(N)c(C)cc3c2)N(C)c2ncccn2)nc1 [Example 226, 2-amino-N-((5-(4-(methoxymethyl)thiazol-5-yl)pyridin-2-yl)methyl)-N',3-dimethyl-N'-(pyrimidin-2-yl)quinoline-6-carbohydrazide] | 891 nM | 5 nM | 28 nM | 31.82 |
| Cc1cc2cc(C(=O)N(Cc3ccc(-c4nncs4)cn3)N(C)c3ncccn3)ccc2nc1N [Example 229, N-((5-(1,3,4-thiadiazol-2-yl)pyridin-2-yl)methyl)-2-amino-N',3-dimethyl-N'-(pyrimidin-2-yl)quinoline-6-carbohydrazide] | 670 nM | 3.7 nM | 14 nM | 47.86 |
| Cc1cc2cc(C(=O)N(Cc3ccc(-c4nncs4)cn3)N(C)c3nccc4nccnc34)ccc2nc1N [Example 232, N-((5-(1,3,4-thiadiazol-2-yl)pyridin-2-yl)methyl)-2-amino-N',3-dimethyl-N'-(pyrido[3,4-b]pyrazin-5-yl)quinoline-6-carbohy drazide] | 995 nM | 4.3 nM | 46 nM | 21.63 |
| Cc1cc2cc(C(=O)N(Cc3ccc(-c4cnn(CF)c4)cn3)N(C)c3ncccn3)ccc2nc1N [Example 233, 2-amino-N-((5-(1-(fluoromethyl)-1H-pyrazol-4-yl)pyridin-2-yl)methyl)-N',3-dimet hyl-N'-(pyrimidin-2-yl)quinoline-6-carbo hydrazide] | 1020 nM | 4.4 nM | 39 nM | 26.28 |
| Cc1cc2cc(C(=O)N(Cc3ccc(-c4scnc4C)cn3)N(C)c3ncccn3)ccc2nc1N [Example 235, 2-amino-N',3-dimethyl-N-((5-(4-methylthiazol-5-yl)pyridin-2-yl)methyl)-N'-(pyrimidin-2-yl)quinoline-6-carbohydrazide] | 183 nM | 3.8 nM | 5.7 nM | 32.11 |
| Cc1cc2cc(C(=O)N(Cc3ccc(-c4scnc4CO)cn3)N(C)c3ncccn3)ccc2nc1N [Example 236, 2-amino-N-((5-(4-(hydroxymethyl)thiazo 1-5-yl)pyridin-2-yl)methyl)-N',3-dimethyl -N'-(pyrimidin-2-yl)quinoline-6-carbohyd razide] | 1110 nM | 6 nM | 26 nM | 42.85 |
| Cc1cc2cc(C(=O)N(Cc3ccc(-c4scnc4C(F)(F)F)cn3)N(C)c3ncccn3)ccc2nc1N [Example 237, 2-amino-N',3-dimethyl-N'-(pyrimidin-2-yl)-N-((5-(4-(trifluoromethyl)thiazol-5-yl)pyridin-2-yl)methyl)quinoline-6-carbohydrazide] | 1180 nM | 8 nM | 32 nM | 36.97 |
| [2H]c1nc(C)c(-c2ccc(CN(C(=O)c3ccc4nc(N)c(C)cc4c3)N(c3ncccn3)C3CC3)nc2)s1 [Example 238, 2-amino-N'-cyclopropyl-3-methyl-N-((5-(4-methylthiazol-5-yl-2d)pyridin-2-yl)methyl)-N'-(pyrimidin-2-yl)quinoline-6-carbohydrazide] | 112 nM | 5.7 nM | 5.1 nM | 21.96 |
| Cc1cc2cc(C(=O)N(Cc3ccc(-c4scnc4C(F)F)cn3)N(c3ncccn3)C3CC3)ccc2nc1N [Example 239, 2-amino-N'-cyclopropyl-N-((5-(4-(difluoromethyl)thiazol-5-yl)pyridin-2-yl)methyl)-3-methyl-N'-(pyrimidin-2-yl)quinoline-6-carbohydrazide] | 261 nM | 7.3 nM | 14 nM | 18.64 |
| Cc1cc2cc(C(=O)N(Cc3ccc(-c4scnc4C4CC4)cn3)N(c3ncccn3)C3CC3)ccc2nc1N [Example 240, 2-amino-N'-cyclopropyl-N-((5-(4-cyclopropylthiazol-5-yl)pyridin-2-yl)methyl)-3-methyl-N'-(pyrimidin-2-yl)quinoline-6-carbohydrazide] | 396 nM | 3.9 nM | 36 nM | 11.00 |
| CCc1ncsc1-c1ccc(CN(C(=O)c2ccc3nc(N)c(C)cc3c2)N(C)c2ncccn2)nc1 [Example 241, 2-amino-N-((5-(4-ethylthiazol-5-yl)pyridin-2-yl)methyl)-N',3-dimethyl-N'-(pyrimidin-2-yl)quinoline-6-carbohydrazide] | 676 nM | 7.3 nM | 37 nM | 18.27 |
| Cc1cc2cc(C(=O)N(Cc3ccc(-c4scnc4CF)cn3)N(C)c3ncccn3)ccc2nc1N [Example 242, 2-amino-N-((5-(4-(fluoromethyl)thiazol-5-yl)pyridin-2-yl)methyl)-N',3-dimethyl-N'-(pyrimidin-2-yl)quinoline-6-carbohydrazide] | 235 nM | 5.9 nM | 8.4 nM | 27.98 |
| Cc1cc2cc(C(=O)N(Cc3ccc(-c4scnc4C#N)cn3)N(C)c3ncccn3)ccc2nc1N [Example 243, 2-amino-N-((5-(4-cyanothiazol-5-yl)pyridin-2-yl)methyl)-N',3-dimethyl-N'-(pyrimidin-2-yl)quinoline-6-carbohydrazide] | 148 nM | 3.4 nM | 6.5 nM | 22.77 |
| Cc1cc2cc(C(=O)N(Cc3ccc(-c4cnc(C(F)(F)F)s4)cn3)N(C)c3ncccn3)ccc2nc1N [Example 244, 2-amino-N',3-dimethyl-N'-(pyrimidin-2-yl)-N-((5-(2-(trifluoromethyl)thiazol-5-yl)pyridin-2-yl)methyl)quinoline-6-carbohydrazide] | 581 nM | 4.2 nM | 41 nM | 14.17 |
| Cc1cc2cc(C(=O)N(Cc3ccc(-c4nncs4)cn3)N(c3ncccn3)C3CC3)ccc2nc1N [Example 250, N-((5-(1,3,4-thiadiazol-2-yl)pyridin-2-yl)methyl)-2-amino-N'-cyclopropyl-3-methyl-N'-(pyrimidin-2-yl)quinoline-6-carbohy drazide] | 820 nM | 3.7 nM | 41 nM | 20.00 |
| CCOc1ccc(CN(C(=O)c2ccc3nc(N)c(C)cc3c2)N(C)c2ncccn2)nc1 [Example 264, 2-amino-N-((5-ethoxypyridin-2-yl)methyl)-N',3-dimethyl-N'-(pyrimidin-2-yl)quin oline-6-carbohydrazide] | 2480 nM | 1 nM | 138 nM | 17.97 |
